{
  "source": "patent US10167262B2",
  "about": "“Herbicidal substituted 3-arylpyrazoles” (FMC CORPORATION, priority 2014, dated 2019)",
  "format_in_all_cases": "in vivo",
  "key": {"[1]": {"tested_on": "oilseed rape (Brassica napus)", "assay": "Test C pre-/postemergence greenhouse test, plant response rating 0-100", "conditions": "Preemergence", "outline": "(§1)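 Plants were scored visually against controls 13–15 days after treatment on a 0–100 scale, 100 meaning complete control. Test chemicals, formulated in surfactant-containing non-phytotoxic solvent, went preemergence onto seeds in loam–sand blend or postemergence onto 1- to 4-leaf plants (2–18 cm) grown in peat-based mix.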"}, "[2]": {"tested_on": "barnyardgrass (Echinochloa crus-galli)", "assay": "Test C pre-/postemergence greenhouse test, plant response rating 0-100", "conditions": "Preemergence", "outline": "as §1"}, "[3]": {"tested_on": "waterhemp (common waterhemp, Amaranthus rudis)", "assay": "Test C pre-/postemergence greenhouse test, plant response rating 0-100", "conditions": "Preemergence", "outline": "as §1"}, "[4]": {"tested_on": "rice (Oryza sativa)", "assay": "Test B flooded paddy test, plant response rating 0-100", "conditions": "Flood, 250 g ai/ha; scale 0 to 100 (0 no effect, 100 complete control); 13 to 15 days", "outline": "(§2)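 Compound was added to standing water 3 cm above soil, flood maintained, and plants held in a greenhouse before visual scoring against controls at 13 to 15 days.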"}, "[5]": {"tested_on": "barnyardgrass (Echinochloa crus-galli)", "assay": "Test B flooded paddy test, plant response rating 0-100", "conditions": "Flood, 250 g ai/ha; scale 0 to 100 (0 no effect, 100 complete control); 13 to 15 days", "outline": "as §2"}, "[6]": {"tested_on": "sedge, umbrella (small-flower umbrella sedge, Cyperus difformis)", "assay": "Test B flooded paddy test, plant response rating 0-100", "conditions": "Flood, 250 g ai/ha; scale 0 to 100 (0 no effect, 100 complete control); 13 to 15 days", "outline": "as §2"}, "[7]": {"tested_on": "ducksalad (Heteranthera limosa)", "assay": "Test B flooded paddy test, plant response rating 0-100", "conditions": "Flood, 250 g ai/ha; scale 0 to 100 (0 no effect, 100 complete control); 13 to 15 days", "outline": "as §2"}, "[8]": {"tested_on": "winter barley (Hordeum vulgare)", "assay": "Test C postemergence greenhouse test, plant response rating 0-100", "conditions": "for Plant response rating, Barley: scale 0 to 100", "outline": "(§3)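 Formulated compounds applied postemergence; plants 1- to 4-leaf stage. Evaluated visually vs. untreated controls after roughly two weeks (13–15 d) under greenhouse conditions; 100 denotes complete control.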"}, "[9]": {"tested_on": "cocklebur (common cocklebur, Xanthium strumarium)", "assay": "Test C postemergence greenhouse test, plant response rating 0-100", "conditions": "for Plant response rating, Cocklebur: scale 0 to 100", "outline": "as §3"}, "[10]": {"tested_on": "windgrass (Apera spica-venti)", "assay": "Test C postemergence greenhouse test, plant response rating 0-100", "conditions": "for Plant response rating, Windgrass: scale 0 to 100", "outline": "as §3"}, "[11]": {"tested_on": "woolly cupgrass (Eriochloa villosa)", "assay": "Test C postemergence greenhouse test, plant response rating 0-100", "conditions": "for Plant response rating, Cupgrass, Woolly: scale 0 to 100", "outline": "as §3"}, "[12]": {"tested_on": "downy bromegrass (Bromus tectorum)", "assay": "Test C postemergence greenhouse test, plant response rating 0-100", "conditions": "for Plant response rating, Bromegrass, Downy: scale 0 to 100", "outline": "as §3"}, "[13]": {"tested_on": "deadnettle (henbit deadnettle, Lamium amplexicaule)", "assay": "Test C postemergence greenhouse test, plant response rating 0-100", "conditions": "for Plant response rating, Deadnettle: scale 0 to 100", "outline": "as §3"}, "[14]": {"tested_on": "green foxtail (Setaria viridis)", "assay": "Test C postemergence greenhouse test, plant response rating 0-100", "conditions": "for Plant response rating, Foxtail, Green: scale 0 to 100", "outline": "as §3"}, "[15]": {"tested_on": "canarygrass (Phalaris minor)", "assay": "Test C postemergence greenhouse test, plant response rating 0-100", "conditions": "for Plant response rating, Canarygrass: scale 0 to 100", "outline": "as §3"}, "[16]": {"tested_on": "surinam grass (Brachiaria decumbens)", "assay": "Test C postemergence greenhouse test, plant response rating 0-100", "conditions": "for Plant response rating, Surinam Grass: scale 0 to 100", "outline": "as §3"}, "[17]": {"tested_on": "waterhemp_RES2, (ALS & HPPD resistant common waterhemp, Amaranthus rudis)", "assay": "Test E postemergence greenhouse test, plant response rating 0-100", "conditions": "scale 0 to 100", "outline": "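Visual ratings, 0 (no effect) to 100 (complete control), made versus controls 14–21 days after postemergence application in the greenhouse. Plants were at 1- to 4-leaf stage (2–18 cm) in peat moss/vermiculite potting medium.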"}},
  "data": [
    {"smiles": "C#CCn1cc(C(=O)c2ccccc2)c(-c2cc(Cl)cc(Cl)c2)n1", "note": "[Compound 39, [3-(3,5-dichlorophenyl)-1-(2-propyn-1-yl)-1H-pyrazol-4-yl]phenylmethanone]", "values": [
      {"measurement": "Plant response rating, Oilseed Rape", "setting": "[1]; 62 g ai/ha", "value": 0},
      {"measurement": "Plant response rating, Oilseed Rape", "setting": "[1]; 125 g ai/ha", "value": 30},
      {"measurement": "Plant response rating, Oilseed Rape", "setting": "[1]; 250 g ai/ha", "value": 50},
      {"measurement": "Plant response rating, Oilseed Rape", "setting": "[1]; 500 g ai/ha", "value": 80},
      {"measurement": "Plant response rating, Barnyardgrass", "setting": "[2]; 62 g ai/ha", "value": 0},
      {"measurement": "Plant response rating, Barnyardgrass", "setting": "[2]; 125 g ai/ha", "value": 0},
      {"measurement": "Plant response rating, Barnyardgrass", "setting": "[2]; 250 g ai/ha", "value": 0},
      {"measurement": "Plant response rating, Barnyardgrass", "setting": "[2]; 500 g ai/ha", "value": 0},
      {"measurement": "Plant response rating, Waterhemp", "setting": "[3]; 62 g ai/ha", "value": 75},
      {"measurement": "Plant response rating, Waterhemp", "setting": "[3]; 125 g ai/ha", "value": 100},
      {"measurement": "Plant response rating, Waterhemp", "setting": "[3]; 250 g ai/ha", "value": 100},
      {"measurement": "Plant response rating, Waterhemp", "setting": "[3]; 500 g ai/ha", "value": 100},
      {"measurement": "Plant response rating, Rice", "setting": "[4]", "value": 0},
      {"measurement": "Plant response rating, Barnyardgrass", "setting": "[5]", "value": 0},
      {"measurement": "Plant response rating, Sedge, Umbrella", "setting": "[6]", "value": 0},
      {"measurement": "Plant response rating, Ducksalad", "setting": "[7]", "value": 0},
      {"measurement": "Plant response rating (0 to 100), Barley", "setting": "[8]; 62 g ai/ha", "value": 0},
      {"measurement": "Plant response rating (0 to 100), Barley", "setting": "[8]; 125 g ai/ha", "value": 0},
      {"measurement": "Plant response rating, Barley", "setting": "[8]; 250 g ai/ha", "value": 0},
      {"measurement": "Plant response rating, Barley", "setting": "[8]; 500 g ai/ha", "value": 0},
      {"measurement": "Plant response rating (0 to 100), Cocklebur", "setting": "[9]; 62 g ai/ha", "value": 15},
      {"measurement": "Plant response rating (0 to 100), Cocklebur", "setting": "[9]; 125 g ai/ha", "value": 55},
      {"measurement": "Plant response rating, Cocklebur", "setting": "[9]; 250 g ai/ha", "value": 55},
      {"measurement": "Plant response rating, Cocklebur", "setting": "[9]; 500 g ai/ha", "value": 55},
      {"measurement": "Plant response rating (0 to 100), Windgrass", "setting": "[10]; 62 g ai/ha", "value": 0},
      {"measurement": "Plant response rating (0 to 100), Windgrass", "setting": "[10]; 125 g ai/ha", "value": 0},
      {"measurement": "Plant response rating, Windgrass", "setting": "[10]; 250 g ai/ha", "value": 0},
      {"measurement": "Plant response rating, Windgrass", "setting": "[10]; 500 g ai/ha", "value": 0},
      {"measurement": "Plant response rating (0 to 100), Cupgrass, Woolly", "setting": "[11]; 62 g ai/ha", "value": 0},
      {"measurement": "Plant response rating (0 to 100), Cupgrass, Woolly", "setting": "[11]; 125 g ai/ha", "value": 0},
      {"measurement": "Plant response rating, Cupgrass, Woolly", "setting": "[11]; 250 g ai/ha", "value": 0},
      {"measurement": "Plant response rating, Cupgrass, Woolly", "setting": "[11]; 500 g ai/ha", "value": 0},
      {"measurement": "Plant response rating (0 to 100), Bromegrass, Downy", "setting": "[12]; 62 g ai/ha", "value": 0},
      {"measurement": "Plant response rating (0 to 100), Bromegrass, Downy", "setting": "[12]; 125 g ai/ha", "value": 0},
      {"measurement": "Plant response rating, Bromegrass, Downy", "setting": "[12]; 250 g ai/ha", "value": 0},
      {"measurement": "Plant response rating, Bromegrass, Downy", "setting": "[12]; 500 g ai/ha", "value": 5},
      {"measurement": "Plant response rating (0 to 100), Deadnettle", "setting": "[13]; 62 g ai/ha", "value": 0},
      {"measurement": "Plant response rating (0 to 100), Deadnettle", "setting": "[13]; 125 g ai/ha", "value": 0},
      {"measurement": "Plant response rating, Deadnettle", "setting": "[13]; 250 g ai/ha", "value": 0},
      {"measurement": "Plant response rating, Deadnettle", "setting": "[13]; 500 g ai/ha", "value": 0},
      {"measurement": "Plant response rating (0 to 100), Foxtail, Green", "setting": "[14]; 62 g ai/ha", "value": 0},
      {"measurement": "Plant response rating (0 to 100), Foxtail, Green", "setting": "[14]; 125 g ai/ha", "value": 0},
      {"measurement": "Plant response rating, Foxtail, Green", "setting": "[14]; 250 g ai/ha", "value": 0},
      {"measurement": "Plant response rating, Foxtail, Green", "setting": "[14]; 500 g ai/ha", "value": 5},
      {"measurement": "Plant response rating (0 to 100), Canarygrass", "setting": "[15]; 62 g ai/ha", "value": 0},
      {"measurement": "Plant response rating (0 to 100), Canarygrass", "setting": "[15]; 125 g ai/ha", "value": 0},
      {"measurement": "Plant response rating, Canarygrass", "setting": "[15]; 250 g ai/ha", "value": 0},
      {"measurement": "Plant response rating, Canarygrass", "setting": "[15]; 500 g ai/ha", "value": 0},
      {"measurement": "Plant response rating (0 to 100), Surinam Grass", "setting": "[16]; 62 g ai/ha", "value": 0},
      {"measurement": "Plant response rating (0 to 100), Surinam Grass", "setting": "[16]; 125 g ai/ha", "value": 0},
      {"measurement": "Plant response rating, Surinam Grass", "setting": "[16]; 250 g ai/ha", "value": 0},
      {"measurement": "Plant response rating, Surinam Grass", "setting": "[16]; 500 g ai/ha", "value": 0},
      {"measurement": "Plant response rating, Waterhemp_RES2", "setting": "[17]; 31 g ai/ha", "value": 70},
      {"measurement": "Plant response rating, Waterhemp_RES2", "setting": "[17]; 62 g ai/ha", "value": 75},
      {"measurement": "Plant response rating, Waterhemp_RES2", "setting": "[17]; 125 g ai/ha", "value": 85},
      {"measurement": "Plant response rating, Waterhemp_RES2", "setting": "[17]; 250 g ai/ha", "value": 90},
      {"measurement": "Plant response rating, Waterhemp_RES2", "setting": "[17]; 500 g ai/ha", "value": 90}
    ]}
  ]
}
